The values below come from US20250171744A1, “METHODS OF REPROGRAMMING SOMATIC CELLS AND MATERIALS RELATED THERETO” (CITY OF HOPE, priority 2019, published 2025).

Molecules are shown by their SMILES.

The nature of assay [1]: Cardiomyocyte differentiation, correlative immunostaining (FIG. 31). It counts as cell-based, human. The conditions noted are these: MTX Treated; vs H1 positive and untreated negative control. The method, then: (§1) MTX/PTX treated and SSEA4 positive cells were maintained on Matrigel-coated 6-well plates in mTeSR1 medium. To induce differentiation, cells with EB-like morphology were dissociated with Accutase (Invitrogen) at 37° C. for 5 minutes and then single cell suspension was seeded onto a Matrigel-coated cell-culture dish at 100,000 cell/cm^2 in mTeSR1 supplemented with 5 μM ROCK inhibitor (Y-27632) for 24 hours. The cells then were cultured in mTeSR1 medium, which was changed daily. Next, 8 μl of 36 mM CHIR99021 were added into 24 ml RPMI/B27-insulin medium to make 12 μM CHIR99021 RPMI/B27-insulin medium and 2-ml of this were added to each well after the old mTeSR1 medium was removed. Exactly 24 hours after adding CHIR, the medium was replaced with 2 ml room temperature RPMI/B27-insulin. The plate was put back into the 37° C., 5% CO2 incubator. 72 hours post addition of CHIR99021, 1 ml medium from each well was removed and the remaining 1-ml was supplemented with 1-ml RPMI/B27-insulin with 5 μM IWP2 (WNT pathway inhibitor). After 48 hours, the medium was replaced with fresh RPMI/B27-insulin and this was incubated at 37° C., 5% CO2 incubator. After this, every 2-days, the old medium was removed from each well of the 12-well plate and 2 ml/well room temperature RPMI/B27 medium was added and incubated at 37° C., 5% CO2. […]

Assay [2] has as its system 293T cells. The description is as above. It counts as cell-based, human. To be noted: MTX Treated; vs H1 positive and untreated negative control. The method, then: as §1

In the case of `CN(Cc1cnc2nc(N)nc(N)c2n1)c1ccc(C(=O)N[C@@H](CCC(=O)O)C(=O)O)cc1` [MTX, methotrexate], the “cardiac muscle cells in the differentiation medium” value in assay [1] and in assay [2] was “had cardiac muscle cells” in each case.
